The record followed here is ChEMBL document CHEMBL1158549, “Synthesis and evaluation of a series of C5'-substituted duocarmycin SA analogs” (Bioorg Med Chem Lett, 2010).

The experiment has as its system L1210. Kind of experiment: Cytotoxicity against mouse L1210 cells. The class given is functional, cell-based.
Regarding `COC(=O)c1cc2c3c(cc(O)c2[nH]1)N(C(=O)c1cc2cc(OC)ccc2[nH]1)C[C@H]3CCl`, inhibition was half-maximal at 21 pM (IC50). In other words, the picomolar range.
The value for `COC(=O)c1cc2c3c(cc(O)c2[nH]1)N(C(=O)c1cc2cc(C(C)=O)ccc2[nH]1)C[C@H]3CCl` was 38 pM; that for `COC(=O)c1cc2c3c(cc(O)c2[nH]1)N(C(=O)c1cc2cc(OC(F)(F)F)ccc2[nH]1)C[C@H]3CCl` was 85 pM; that for `COC(=O)c1cc2c3c(cc(O)c2[nH]1)N(C(=O)c1cc2cc(C(F)(F)F)ccc2[nH]1)C[C@H]3CCl` was 75 pM.
As to `COC(=O)c1cc2c([nH]1)C(=O)C=C1N(C(=O)c3cc4cc(C)ccc4[nH]3)C[C@H]3C[C@]123`, the midpoint of inhibition, the IC50, lay at 77 pM.
Take `COC(=O)c1cc2c([nH]1)C(=O)C=C1N(C(=O)c3cc4cc(O)ccc4[nH]3)C[C@H]3C[C@]123`: the IC50 (as a rule, the point on the concentration scale where inhibition reaches its midpoint) turned out to be 53 pM.
`COC(=O)c1cc2c3c(cc(O)c2[nH]1)N(C(=O)c1cc2cc(O)ccc2[nH]1)C[C@H]3CCl` gave an IC50 of 50 pM.
`COC(=O)c1ccc2[nH]c(C(=O)N3C[C@H]4C[C@@]45C3=CC(=O)c3[nH]c(C(=O)OC)cc35)cc2c1` displayed an IC50 of 47 pM.
`COC(=O)c1cc2c([nH]1)C(=O)C=C1N(C(=O)c3cc4cc(C#N)ccc4[nH]3)C[C@H]3C[C@]123` had a half-inhibitory concentration (IC50) of 7 pM.
As for `COC(=O)c1cc2c([nH]1)C(=O)C=C1N(C(=O)c3cc4cc(C(C)=O)ccc4[nH]3)C[C@H]3C[C@]123`, the IC50 was 43 pM.
In turn, `COC(=O)c1cc2c([nH]1)C(=O)C=C1N(C(=O)c3cc4cc(OC(F)(F)F)ccc4[nH]3)C[C@H]3C[C@]123` registered an IC50 of 49 pM.
On to `COC(=O)c1cc2c3c(cc(O)c2[nH]1)N(C(=O)c1cc2ccccc2[nH]1)C[C@H]3CCl`, for which the IC50 turned out to be 72 pM.
The value for `COC(=O)c1cc2c3c(cc(O)c2[nH]1)N(C(=O)c1cc2cc(C)ccc2[nH]1)C[C@H]3CCl` was 78 pM; that for `COC(=O)c1cc2c([nH]1)C(=O)C=C1N(C(=O)c3cc4cc(OC)c(O)cc4[nH]3)C[C@H]3C[C@]123` was 7 pM.
Regarding `COC(=O)c1cc2c([nH]1)C(=O)C=C1N(C(=O)c3cc4cc(O)c(OC)cc4[nH]3)C[C@H]3C[C@]123`, the IC50 was 33 pM.
In turn, `COC(=O)c1ccc2[nH]c(C(=O)N3C[C@@H](CCl)c4c3cc(O)c3[nH]c(C(=O)OC)cc43)cc2c1` came in with an IC50 of 48 pM.
The value for `COC(=O)c1cc2c3c(cc(O)c2[nH]1)N(C(=O)c1cc2cc(F)ccc2[nH]1)C[C@H]3CCl` was 79 pM; that for `COC(=O)c1cc2c3c(cc(O)c2[nH]1)N(C(=O)c1cc2cc(NC(C)=O)ccc2[nH]1)C[C@H]3CCl` was 81 pM; that for `COC(=O)c1cc2c3c(cc(O)c2[nH]1)N(C(=O)c1cc2cc(S(C)(=O)=O)ccc2[nH]1)C[C@H]3CCl` was 58 pM.
The same measure for `COC(=O)c1cc2c([nH]1)C(=O)C=C1N(C(=O)c3cc4cc(C(F)(F)F)ccc4[nH]3)C[C@H]3C[C@]123`: 65 pM.
Turning to `CNC(=O)c1ccc2[nH]c(C(=O)N3C[C@H]4C[C@@]45C3=CC(=O)c3[nH]c(C(=O)OC)cc35)cc2c1`, the IC50 amounted to 70 pM.
The compound `COC(=O)c1cc2c([nH]1)C(=O)C=C1N(C(=O)c3cc4cc(F)ccc4[nH]3)C[C@H]3C[C@]123` displayed an IC50 of 54 pM.
The value for `CNC(=O)c1ccc2[nH]c(C(=O)N3C[C@@H](CCl)c4c3cc(O)c3[nH]c(C(=O)OC)cc43)cc2c1` was 61 pM; that for `COC(=O)c1cc2c([nH]1)C(=O)C=C1N(C(=O)c3cc4cc([N+](=O)[O-])ccc4[nH]3)C[C@H]3C[C@]123` was 41 pM; that for `COC(=O)c1cc2c([nH]1)C(=O)C=C1N(C(=O)c3cc4cc(NC(C)=O)ccc4[nH]3)C[C@H]3C[C@]123` was 83 pM.
The value for `COC(=O)c1cc2c([nH]1)C(=O)C=C1N(C(=O)c3cc4cc(S(C)(=O)=O)ccc4[nH]3)C[C@H]3C[C@]123` was 58 pM; that for `COC(=O)c1cc2c3c(cc(O)c2[nH]1)N(C(=O)c1cc2cc(C#N)ccc2[nH]1)C[C@H]3CCl` was 9 pM.
On to `COC(=O)c1cc2c([nH]1)C(=O)C=C1N(C(=O)c3cc4cc(OC)ccc4[nH]3)C[C@H]3C[C@]123`, for which half-maximal inhibition (IC50) was put at 7.5 pM.
The value for `COC(=O)c1cc2c([nH]1)C(=O)C=C1N(C(=O)c3cc4ccccc4[nH]3)C[C@H]3C[C@]123` was 68 pM; that for `COC(=O)c1cc2c([nH]1)C(=O)C=C1N(C(=O)c3cc4cc(OC)c(OC)c(OC)c4[nH]3)C[C@H]3C[C@]123` [DUOCARMYCIN] was 6 pM.
